What was measured:
Tetrabenazin = test: Tetrabenazine antagonism (antidepressant activity); format: in vivo; conditions: for ED50: no unit, species or route given, read-out: Tetrabenazin Dosis Antagonismus ED50; for LD50/ED50: ratio of LD50 to tetrabenazine antagonism ED50
Acute toxicity (LD50) = format: in vivo; conditions: no unit, species or route given

Row | Structure (SMILES) | ED50 (Tetrabenazin) | LD50/ED50 (Tetrabenazin) | LD50 (Acute toxicity (LD50))
1 | Cc1ccc2c(c1)c1c3n2CCNC3CCC1.Cl (centres unmarked) [8-Methyl-2,3,3a,4,5,6-hexahydro-1H-pyrazino[3,2,1-jk]-carbazol-Hydrochlorid, reference compound] | 14 mg/kg | 8,7 | –
2 | Cc1ccc2c(c1)c1c3n2CCN=C3CCC1.Cl [Beispiel 1, 8-Methyl-2,4,5,6-tetra-hydro-1H-pyrazino[3,2,1-jk]carbazol-Hydrochlorid] | 4 mg/kg | 18,0 | 72 mg/kg
3 | COc1ccc2c(c1)c1c3n2CCN=C3CCC1.Cl [Beispiel 2, 8-Methoxy-2,4,5,6-tetra-hydro-1H-pyrazino[3,2,1-jk]carbazol-Hydrochlorid] | 2 mg/kg | 18,5 | 37 mg/kg

From EP0028270A1, “Pyrazino-carbazoles, process for their preparation and pharmaceutical compositions containing them” (CASSELLA Aktiengesellschaft, priority 1979, dated 1981)
